# Test results taken from ChEMBL document CHEMBL3885881, “DrugMatrix”.
# Legend:
# [1] = species: Rattus norvegicus; test: DrugMatrix - Regimen: Daily Repeat; assay type: toxicity, organism-based, Sprague-Dawley; set-up: regimen Daily Repeat, gender Male, age 6-8 weeks; conditions: in vivo, po, 17 mg/kg, route oral GAVAGE, dose level High, vehicle .5 % CMC
# [2] = species: Rattus norvegicus; assay type: toxicity, organism-based, Sprague-Dawley; conditions: in vivo, po, 17 mg/kg, 24 h, route oral GAVAGE, dose level High, time 1 day, vehicle .5 % CMC
# Description: DrugMatrix - Regimen: Single
# [3] = […], tissue Plasma, time 14 day
smiles,measurement,setting,value
COc1ccc(C(=O)Nc2c(Cl)cncc2Cl)cc1OC1CCCC1,URIC ACID,"[1]; 120 h, tissue Plasma, time 5 day",1.5 mg/dL
same,ABSOLUTE BASOPHIL,"[1]; […], tissue Blood, time 14 day",0 CELLS/uL
same,ABSOLUTE EOSINOPHIL,"[1]; […], tissue Blood, time 14 day",107.5 CELLS/uL
same,ABSOLUTE LYMPHOCYTE,"[1]; […], tissue Blood, time 14 day",9595.25 CELLS/uL
same,ABSOLUTE MONOCYTE,"[1]; […], tissue Blood, time 14 day",1138.5 CELLS/uL
same,ABSOLUTE SEGMENTED NEUTROPHIL,"[1]; […], tissue Blood, time 14 day",8133.75 CELLS/uL
same,BASOPHIL,"[1]; […], tissue Blood, time 14 day",0%
same,EOSINOPHIL,"[1]; […], tissue Blood, time 14 day",0.5%
same,ERYTHROCYTE COUNT,"[1]; […], tissue Blood, time 14 day",6.06 x10E6/uL
same,HEMATOCRIT,"[1]; […], tissue Blood, time 14 day",34.55%
same,HEMOGLOBIN,"[1]; […], tissue Blood, time 14 day",12.95 G/DL
same,LEUKOCYTE COUNT,"[1]; […], tissue Blood, time 14 day",18.98 x10E3/uL
same,LYMPHOCYTE,"[1]; […], tissue Blood, time 14 day",60.25%
same,MEAN CORPUSCULAR HEMOGLOBIN,"[1]; […], tissue Blood, time 14 day",21.4 pg
same,MEAN CORPUSCULAR HEMOGLOBIN CONCENTRATION,"[1]; […], tissue Blood, time 14 day",37.5 G/DL
same,MEAN CORPUSCULAR VOLUME,"[1]; […], tissue Blood, time 14 day",57.05 fL
same,MONOCYTE,"[1]; […], tissue Blood, time 14 day",5%
same,NEUTROPHIL,"[1]; […], tissue Blood, time 14 day",34.25%
same,NUCLEATED RED BLOOD CELLS,"[1]; […], tissue Blood, time 14 day",0 /100WBC
same,PLATELET COUNT,"[1]; […], tissue Blood, time 14 day",1068 x10E3/uL
same,ALANINE AMINOTRANSFERASE,[1]; [3],48.25 u/L
same,ALBUMIN,[1]; [3],3.22 G/DL
same,ALKALINE PHOSPHATASE,[1]; [3],273 u/L
same,ASPARTATE AMINOTRANSFERASE,[1]; [3],67 u/L
same,BLOOD UREA NITROGEN,[1]; [3],14.25 mg/dL
same,CARBON DIOXIDE,[1]; [3],33.75 mmol/L
same,CHLORIDE,[1]; [3],100.5 MEQ/L
same,CHOLESTEROL,[1]; [3],56 mg/dL
same,CREATININE,[1]; [3],0.24 mg/dL
same,GLUCOSE,[1]; [3],131 mg/dL
same,LACTATE DEHYDROGENASE,[1]; [3],107.75 u/L
same,LIPASE,[1]; [3],9 u/L
same,PHOSPHORUS,[1]; [3],8.28 mg/dL
same,POTASSIUM,[1]; [3],5.54 MEQ/L
same,SODIUM,[1]; [3],148.15 MEQ/L
same,TOTAL BILIRUBIN,[1]; [3],0.18 mg/dL
same,TOTAL PROTEIN,[1]; [3],6.12 G/DL
same,URIC ACID,[1]; [3],0.62 mg/dL
same,ABSOLUTE EOSINOPHIL,[2]; tissue Blood,176.33 CELLS/uL
same,ABSOLUTE LYMPHOCYTE,[2]; tissue Blood,11028.33 CELLS/uL
same,ABSOLUTE MONOCYTE,[2]; tissue Blood,409.33 CELLS/uL
same,ABSOLUTE SEGMENTED NEUTROPHIL,[2]; tissue Blood,1619.33 CELLS/uL
same,BASOPHIL,[2]; tissue Blood,0%
same,EOSINOPHIL,[2]; tissue Blood,1.33%
same,ERYTHROCYTE COUNT,[2]; tissue Blood,5.33 x10E6/uL
same,HEMATOCRIT,[2]; tissue Blood,33.03%
same,HEMOGLOBIN,[2]; tissue Blood,12.1 G/DL
same,LEUKOCYTE COUNT,[2]; tissue Blood,13.23 x10E3/uL
same,LYMPHOCYTE,[2]; tissue Blood,83.33%
same,MEAN CORPUSCULAR HEMOGLOBIN,[2]; tissue Blood,22.7 pg
same,MEAN CORPUSCULAR HEMOGLOBIN CONCENTRATION,[2]; tissue Blood,36.67 G/DL
same,MEAN CORPUSCULAR VOLUME,[2]; tissue Blood,61.9 fL
same,MONOCYTE,[2]; tissue Blood,3%
same,NEUTROPHIL,[2]; tissue Blood,12.33%
same,NUCLEATED RED BLOOD CELLS,[2]; tissue Blood,0 /100WBC
same,PLATELET COUNT,[2]; tissue Blood,1139 x10E3/uL
same,ALANINE AMINOTRANSFERASE,[2]; tissue Plasma,61.33 u/L
same,ALBUMIN,[2]; tissue Plasma,4.37 G/DL
same,ALKALINE PHOSPHATASE,[2]; tissue Plasma,327.67 u/L
same,ASPARTATE AMINOTRANSFERASE,[2]; tissue Plasma,116 u/L
same,BLOOD UREA NITROGEN,[2]; tissue Plasma,15.67 mg/dL
same,CARBON DIOXIDE,[2]; tissue Plasma,34.33 mmol/L
same,CHLORIDE,[2]; tissue Plasma,101.33 MEQ/L
same,CHOLESTEROL,[2]; tissue Plasma,76 mg/dL
same,CREATININE,[2]; tissue Plasma,0.2 mg/dL
same,GLUCOSE,[2]; tissue Plasma,153.67 mg/dL
same,LACTATE DEHYDROGENASE,[2]; tissue Plasma,163.33 u/L
same,LIPASE,[2]; tissue Plasma,9 u/L
same,PHOSPHORUS,[2]; tissue Plasma,12.6 mg/dL
same,POTASSIUM,[2]; tissue Plasma,6.66 MEQ/L
same,SODIUM,[2]; tissue Plasma,148.6 MEQ/L
same,TOTAL BILIRUBIN,[2]; tissue Plasma,0.2 mg/dL
same,TOTAL PROTEIN,[2]; tissue Plasma,6.3 G/DL
same,URIC ACID,[2]; tissue Plasma,1.2 mg/dL
